{
  "source": "ChEMBL document CHEMBL1687752",
  "about": "“Impact of antifungal prophylaxis on colonization and azole susceptibility of Candida species” (2009)",
  "data": [
    {"system": "Nakaseomyces glabratus", "assay": "Antifungal activity against Candida glabrata isolated from HSCT recipients with acute or chronic GVHD receiving fluconazole by broth microdilution method", "type": "functional", "settings": "not given", "units": {"MIC50": "µg/mL", "MIC90": "µg/mL"}, "values": [
      {"compound": "CCC(C)n1ncn(-c2ccc(N3CCN(c4ccc(OCC5COC(Cn6cncn6)(c6ccc(Cl)cc6Cl)O5)cc4)CC3)cc2)c1=O", "note": "(stereo not drawn) [ITRACONAZOLE]", "MIC50": 1, "MIC90": 16}
    ]},
    {"system": "Nakaseomyces glabratus", "assay": "Antifungal activity against Candida glabrata isolated from HSCT recipients with acute or chronic GVHD prior to initiation of posaconazole therapy assessed as maximum MIC by broth microdilution method", "type": "functional", "settings": "not given", "units": {"MIC": "µg/mL"}, "values": [
      {"compound": "CCC(C)n1ncn(-c2ccc(N3CCN(c4ccc(OCC5COC(Cn6cncn6)(c6ccc(Cl)cc6Cl)O5)cc4)CC3)cc2)c1=O", "note": "(stereo not drawn) [ITRACONAZOLE]", "MIC": 8}
    ]},
    {"system": "Nakaseomyces glabratus", "assay": "Antifungal activity against Candida glabrata isolated from HSCT recipient 474 with acute or chronic GVHD mouth after 124 days prophylaxis by broth microdilution method", "type": "functional", "settings": "not given", "units": {"MIC": "µg/mL"}, "values": [
      {"compound": "CCC(C)n1ncn(-c2ccc(N3CCN(c4ccc(OCC5COC(Cn6cncn6)(c6ccc(Cl)cc6Cl)O5)cc4)CC3)cc2)c1=O", "note": "(stereo not drawn) [ITRACONAZOLE]", "MIC": 4}
    ]},
    {"system": "Nakaseomyces glabratus", "assay": "Antifungal activity against Candida glabrata isolated from neutropenic subjects with AML or MDS prior to initiation of fluconazole therapy assessed as maximum MIC by broth microdilution method", "type": "functional", "settings": "not given", "units": {"MIC": "µg/mL"}, "values": [
      {"compound": "CCC(C)n1ncn(-c2ccc(N3CCN(c4ccc(OCC5COC(Cn6cncn6)(c6ccc(Cl)cc6Cl)O5)cc4)CC3)cc2)c1=O", "note": "(stereo not drawn) [ITRACONAZOLE]", "MIC": 8}
    ]},
    {"system": "Pichia kudriavzevii", "assay": "Antifungal activity against Candida krusei isolated from neutropenic subjects with AML or MDS receiving fluconazole assessed as maximum MIC by broth microdilution method", "type": "functional", "settings": "not given", "units": {"MIC": "µg/mL"}, "values": [
      {"compound": "CCC(C)n1ncn(-c2ccc(N3CCN(c4ccc(OCC5COC(Cn6cncn6)(c6ccc(Cl)cc6Cl)O5)cc4)CC3)cc2)c1=O", "note": "(stereo not drawn) [ITRACONAZOLE]", "MIC": 1}
    ]},
    {"system": "Nakaseomyces glabratus", "assay": "Antifungal activity against Candida glabrata isolated from neutropenic subject 1331 with AML or MDS pharynx after 21 days prophylaxis by broth microdilution method", "type": "functional", "settings": "504 h", "units": {"MIC": "µg/mL"}, "values": [
      {"compound": "CCC(C)n1ncn(-c2ccc(N3CCN(c4ccc(OCC5COC(Cn6cncn6)(c6ccc(Cl)cc6Cl)O5)cc4)CC3)cc2)c1=O", "note": "(stereo not drawn) [ITRACONAZOLE]", "MIC": 1}
    ]},
    {"system": "Nakaseomyces glabratus", "assay": "Antifungal activity against 176 days cultured Candida glabrata isolated from HSCT recipient with acute or chronic GVHD mouth receiving antifungal therapy for 168 days after 113 days of prophylaxis by broth microdilution method", "type": "functional", "settings": "not given", "units": {"MIC": "µg/mL"}, "values": [
      {"compound": "CCC(C)n1ncn(-c2ccc(N3CCN(c4ccc(OCC5COC(Cn6cncn6)(c6ccc(Cl)cc6Cl)O5)cc4)CC3)cc2)c1=O", "note": "(stereo not drawn) [ITRACONAZOLE]", "MIC": 2}
    ]},
    {"system": "Candida tropicalis", "assay": "Antifungal activity against -3 days cultured Candida tropicalis isolated from neutropenic subject with AML or MDS pharynx receiving antifungal therapy for 45 days after 24 days of prophylaxis by broth microdilution method", "type": "functional", "settings": "not given", "units": {"MIC": "µg/mL"}, "values": [
      {"compound": "CCC(C)n1ncn(-c2ccc(N3CCN(c4ccc(OCC5COC(Cn6cncn6)(c6ccc(Cl)cc6Cl)O5)cc4)CC3)cc2)c1=O", "note": "(stereo not drawn) [ITRACONAZOLE]", "MIC": 0.03}
    ]},
    {"system": "Nakaseomyces glabratus", "assay": "Antifungal activity against Candida glabrata isolated from HSCT recipient 186 with acute or chronic GVHD mouth after 112 days prophylaxis by broth microdilution method", "type": "functional", "settings": "not given", "units": {"MIC": "µg/mL"}, "values": [
      {"compound": "CCC(C)n1ncn(-c2ccc(N3CCN(c4ccc(OCC5COC(Cn6cncn6)(c6ccc(Cl)cc6Cl)O5)cc4)CC3)cc2)c1=O", "note": "(stereo not drawn) [ITRACONAZOLE]", "MIC": 0.5}
    ]},
    {"system": "Nakaseomyces glabratus", "assay": "Antifungal activity against Candida glabrata isolated from neutropenic subjects with AML or MDS receiving fluconazole assessed as maximum MIC by broth microdilution method", "type": "functional", "settings": "not given", "units": {"MIC": "µg/mL"}, "values": [
      {"compound": "CCC(C)n1ncn(-c2ccc(N3CCN(c4ccc(OCC5COC(Cn6cncn6)(c6ccc(Cl)cc6Cl)O5)cc4)CC3)cc2)c1=O", "note": "(stereo not drawn) [ITRACONAZOLE]", "MIC": 8}
    ]},
    {"system": "Candida albicans", "assay": "Antifungal activity against Candida albicans isolated from HSCT recipients with acute or chronic GVHD prior to initiation of posaconazole therapy assessed as maximum MIC by broth microdilution method", "type": "functional", "settings": "not given", "units": {"MIC": "µg/mL"}, "values": [
      {"compound": "CCC(C)n1ncn(-c2ccc(N3CCN(c4ccc(OCC5COC(Cn6cncn6)(c6ccc(Cl)cc6Cl)O5)cc4)CC3)cc2)c1=O", "note": "(stereo not drawn) [ITRACONAZOLE]", "MIC": 16}
    ]},
    {"system": "Nakaseomyces glabratus", "assay": "Antifungal activity against Candida glabrata isolated from HSCT recipient 002 with acute or chronic GVHD mouth after 116 days prophylaxis by broth microdilution method", "type": "functional", "settings": "not given", "units": {"MIC": "µg/mL"}, "values": [
      {"compound": "CCC(C)n1ncn(-c2ccc(N3CCN(c4ccc(OCC5COC(Cn6cncn6)(c6ccc(Cl)cc6Cl)O5)cc4)CC3)cc2)c1=O", "note": "(stereo not drawn) [ITRACONAZOLE]", "MIC": 1}
    ]},
    {"system": "Nakaseomyces glabratus", "assay": "Antifungal activity against Candida glabrata isolated from neutropenic subjects with AML or MDS prior to initiation of fluconazole therapy by broth microdilution method", "type": "functional", "settings": "not given", "units": {"MIC50": "µg/mL", "MIC90": "µg/mL"}, "values": [
      {"compound": "CCC(C)n1ncn(-c2ccc(N3CCN(c4ccc(OCC5COC(Cn6cncn6)(c6ccc(Cl)cc6Cl)O5)cc4)CC3)cc2)c1=O", "note": "(stereo not drawn) [ITRACONAZOLE]", "MIC50": 0.5, "MIC90": 2}
    ]},
    {"system": "Nakaseomyces glabratus", "assay": "Antifungal activity against 43 days cultured Candida glabrata isolated from HSCT recipient with acute or chronic GVHD mouth receiving antifungal therapy for 172 days after 114 days of prophylaxis by broth microdilution method", "type": "functional", "settings": "not given", "units": {"MIC": "µg/mL"}, "values": [
      {"compound": "CCC(C)n1ncn(-c2ccc(N3CCN(c4ccc(OCC5COC(Cn6cncn6)(c6ccc(Cl)cc6Cl)O5)cc4)CC3)cc2)c1=O", "note": "(stereo not drawn) [ITRACONAZOLE]", "MIC": 2}
    ]},
    {"system": "Candida albicans", "assay": "Antifungal activity against Candida albicans isolated from HSCT recipients with acute or chronic GVHD receiving fluconazole by broth microdilution method", "type": "functional", "settings": "not given", "units": {"MIC50": "µg/mL", "MIC90": "µg/mL"}, "values": [
      {"compound": "CCC(C)n1ncn(-c2ccc(N3CCN(c4ccc(OCC5COC(Cn6cncn6)(c6ccc(Cl)cc6Cl)O5)cc4)CC3)cc2)c1=O", "note": "(stereo not drawn) [ITRACONAZOLE]", "MIC50": 0.03, "MIC90": 16}
    ]},
    {"system": "Candida albicans", "assay": "Antifungal activity against Candida albicans isolated from HSCT recipients with acute or chronic GVHD prior to initiation of fluconazole therapy by broth microdilution method", "type": "functional", "settings": "not given", "units": {"MIC50": "µg/mL", "MIC90": "µg/mL"}, "values": [
      {"compound": "CCC(C)n1ncn(-c2ccc(N3CCN(c4ccc(OCC5COC(Cn6cncn6)(c6ccc(Cl)cc6Cl)O5)cc4)CC3)cc2)c1=O", "note": "(stereo not drawn) [ITRACONAZOLE]", "MIC50": 0.03, "MIC90": 0.06}
    ]},
    {"system": "Nakaseomyces glabratus", "assay": "Antifungal activity against 59 days cultured Candida glabrata isolated from HSCT recipient with acute or chronic GVHD mouth receiving antifungal therapy for 75 days after 33 days of prophylaxis by broth microdilution method", "type": "functional", "settings": "not given", "units": {"MIC": "µg/mL"}, "values": [
      {"compound": "CCC(C)n1ncn(-c2ccc(N3CCN(c4ccc(OCC5COC(Cn6cncn6)(c6ccc(Cl)cc6Cl)O5)cc4)CC3)cc2)c1=O", "note": "(stereo not drawn) [ITRACONAZOLE]", "MIC": 1}
    ]},
    {"system": "Candida albicans", "assay": "Antifungal activity against Candida albicans isolated from neutropenic subjects with AML or MDS prior to initiation of fluconazole therapy by broth microdilution method", "type": "functional", "settings": "not given", "units": {"MIC50": "µg/mL", "MIC90": "µg/mL"}, "values": [
      {"compound": "CCC(C)n1ncn(-c2ccc(N3CCN(c4ccc(OCC5COC(Cn6cncn6)(c6ccc(Cl)cc6Cl)O5)cc4)CC3)cc2)c1=O", "note": "(stereo not drawn) [ITRACONAZOLE]", "MIC50": 0.015, "MIC90": 0.015}
    ]}
  ]
}
